The target in the assay is T1, IGF-1R (Homo sapiens, UniProt P08069).
T1 construct: expressed in transfected cells
The assay can be described thus: Example B-2: IGF-1R Assay (PathHunter cell lines, EC80 agonist challenge, chemiluminescent detection). Type of assay: cell-based. As to conditions: PathHunter cells, compound 60 minutes at 37° C., EC80 agonist 3 hours; read-out: IC50, Biological Activity against IGF-1R (Table B2). A digest of the protocol:
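Read-out is PathHunter chemiluminescence, developed for 1 h at room temperature after a 3 h room-temperature EC80 agonist challenge that followed 60 min compound pre-treatment at 37° C (1% vehicle). IC50 comes from % inhibition normalized to EC80 and vehicle controls.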

Counter-ions that a name gives are not always drawn.

T1 sequence (P08069 31-1367): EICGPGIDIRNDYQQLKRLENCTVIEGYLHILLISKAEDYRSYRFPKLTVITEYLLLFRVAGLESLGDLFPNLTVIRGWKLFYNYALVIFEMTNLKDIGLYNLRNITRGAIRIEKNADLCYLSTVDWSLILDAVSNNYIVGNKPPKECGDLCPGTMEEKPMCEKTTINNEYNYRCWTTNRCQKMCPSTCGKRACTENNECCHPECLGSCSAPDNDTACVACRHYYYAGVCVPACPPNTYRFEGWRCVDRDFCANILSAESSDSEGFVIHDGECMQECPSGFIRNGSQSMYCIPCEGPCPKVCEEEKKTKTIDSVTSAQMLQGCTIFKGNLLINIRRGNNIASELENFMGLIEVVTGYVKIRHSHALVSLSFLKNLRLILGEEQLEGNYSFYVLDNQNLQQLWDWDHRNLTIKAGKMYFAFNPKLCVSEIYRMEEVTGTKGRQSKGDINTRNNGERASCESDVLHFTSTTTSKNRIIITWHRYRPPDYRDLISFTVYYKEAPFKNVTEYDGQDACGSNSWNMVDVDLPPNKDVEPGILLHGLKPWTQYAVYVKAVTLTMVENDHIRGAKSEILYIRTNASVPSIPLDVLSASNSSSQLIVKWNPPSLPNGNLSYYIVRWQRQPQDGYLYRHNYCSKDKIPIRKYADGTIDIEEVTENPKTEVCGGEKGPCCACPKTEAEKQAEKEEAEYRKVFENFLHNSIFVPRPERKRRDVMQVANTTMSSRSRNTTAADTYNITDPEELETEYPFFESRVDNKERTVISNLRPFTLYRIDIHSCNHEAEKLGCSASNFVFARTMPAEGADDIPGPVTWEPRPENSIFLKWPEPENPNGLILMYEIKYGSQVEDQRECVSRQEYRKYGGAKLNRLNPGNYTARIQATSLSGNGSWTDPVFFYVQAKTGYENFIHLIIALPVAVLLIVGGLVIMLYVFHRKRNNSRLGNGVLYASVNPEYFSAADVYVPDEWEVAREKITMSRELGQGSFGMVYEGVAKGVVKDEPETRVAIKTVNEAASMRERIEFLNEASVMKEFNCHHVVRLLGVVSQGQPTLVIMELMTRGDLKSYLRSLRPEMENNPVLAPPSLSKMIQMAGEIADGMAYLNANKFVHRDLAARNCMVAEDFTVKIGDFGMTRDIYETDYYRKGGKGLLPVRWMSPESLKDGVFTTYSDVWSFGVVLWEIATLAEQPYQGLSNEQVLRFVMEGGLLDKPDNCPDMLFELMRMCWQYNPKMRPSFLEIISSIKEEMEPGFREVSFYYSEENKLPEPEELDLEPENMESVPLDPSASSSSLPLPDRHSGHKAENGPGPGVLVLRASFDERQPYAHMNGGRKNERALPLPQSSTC

Turning to `CC1(C)C(=O)N(c2ccc3c(c2)OC(F)(F)C32CC2)C(=O)N1Cc1ccnc2c1CC(=O)N2` [Compound 70, 3-(2,2-difluoro-2H-spiro[benzofuran-3,1′-cyclopropan]-6-yl)-5,5-dimethyl-1-((2-oxo-2,3-dihydro-1H-pyrrolo[2,3-b]pyridin-4-yl)methyl)imidazolidine-2,4-dione], the IC50 is 2000 to 10000 nM.

In the case of `CC(CF)Nc1cc(CN2C(=O)N(c3ccc(S(=O)(=O)C(F)(F)F)cc3)C(=O)C2(C)C)ccn1` (centres unmarked) [Compound 336, 1-((2-((1-fluoropropan-2-yl)amino)pyridin-4-yl)methyl)-5,5-dimethyl-3-(4-((trifluoromethyl)sulfonyl)phenyl) imidazolidine-2,4-dione], the IC50 lay within 500 to 2000 nM.

`CC1(C)C(=O)N(c2ccc(C3(C(F)(F)F)CC3)cc2)C(=O)N1Cc1ccnc(NCc2ncc[nH]2)c1` [Compound 173, 1-((2-(((1H-imidazol-2-yl)methyl)amino)pyridin-4-yl)methyl)-5,5-dimethyl-3-(4-(1-(trifluoromethyl)cyclopropyl)phenyl) imidazolidine-2,4-dione]: the IC50 was at most 500 nM.

On to `COC[C@@H](C)Nc1cc(CN2C(=O)N(c3ccc4c(c3)N(S(C)(=O)=O)CC4(C)C)C(=O)C2(C)C)ccn1` [Compound 203, (R)-3-(3,3-dimethyl-1-(methylsulfonyl)indolin-6-yl)-1-((2-((1-methoxypropan-2-yl)amino)pyridin-4-yl)methyl)-5,5-dimethylimidazolidine-2,4-dione], for which the IC50 was at most 500 nM.

For `CO[C@@H](C)CNc1cc(CN2C(=O)N(c3ccc4c(c3)N(S(C)(=O)=O)CC43CCC3)C(=O)C2(C)C)ccn1` [Compound 238, (S)-1-((2-((2-methoxypropyl)amino)pyridin-4-yl)methyl)-5,5-dimethyl-3-(1′-(methylsulfonyl)spiro[cyclobutane-1,3′-indolin]-6′-yl)imidazolidine-2,4-dione], the IC50 was at most 500 nM.

Take `CC(C)c1ccc(N2C(=O)N(Cc3ccnc(N[C@H]4[C@@H]5COC[C@@H]54)c3)C(C)(C)C2=O)cc1C#N` [Compound 279, 5-(3-((2-(((1R,5S,6r)-3-oxabicyclo[3.1.0]hexan-6-yl)amino)pyridin-4-yl)methyl)-4,4-dimethyl-2,5-dioxoimidazolidin-1-yl)-2-isopropylbenzonitrile]: the IC50 was at most 500 nM.

On to `CN1CCCC(Nc2cc(CN3C(=O)N(c4ccc(S(=O)(=O)C(F)(F)F)cc4)C(=O)C3(C)C)ccn2)C1=O` (centres unmarked) [Compound 328, 5,5-dimethyl-1-((2-((1-methyl-2-oxopiperidin-3-yl)amino)pyridin-4-yl)methyl)-3-(4-((trifluoromethyl)sulfonyl)phenyl) imidazolidine-2,4-dione], for which the IC50 is above 10000 nM.

For `CN1CC(Nc2cc(CN3C(=O)N(c4ccc(S(=O)(=O)C(F)(F)F)cc4)C(=O)C3(C)C)ccn2)CCC1=O` (centres unmarked) [Compound 330, 5,5-dimethyl-1-((2-((1-methyl-6-oxopiperidin-3-yl)amino)pyridin-4-yl)methyl)-3-(4-((trifluoromethyl)sulfonyl)phenyl) imidazolidine-2,4-dione], the half-inhibitory concentration (IC50) is 500 to 2000 nM.

On to `CC1(C)C(=O)N(c2ccc3c(c2)N(C(=O)C2CC2)CC3)C(=O)N1Cc1ccnc(N[C@H]2[C@@H]3COC[C@@H]32)c1` [Compound 252, 1-((2-(((1R,5S,6r)-3-oxabicyclo[3.1.0]hexan-6-yl)amino)pyridin-4-yl)methyl)-3-(1-(cyclopropanecarbonyl)indolin-6-yl)-5,5-dimethylimidazolidine-2,4-dione], for which the IC50 is above 10000 nM.

As for `CC1(C)COc2cc(N3C(=O)N(Cc4ccnc(NC5CCOCC5)c4)C(C)(C)C3=O)ccc21` [Compound 199, 3-(3,3-dimethyl-2,3-dihydrobenzofuran-6-yl)-5,5-dimethyl-1-((2-((tetrahydro-2H-pyran-4-yl)amino)pyridin-4-yl)methyl)imidazolidine-2,4-dione], the IC50 is at most 500 nM.

On to `CC1(C)C(=O)N(c2ccc3c(c2)N(C(=O)C2CC2)CC32CCC2)C(=O)N1Cc1ccnc(NC2CCOCC2)c1` [Compound 237, 3-(1′-(cyclopropanecarbonyl)spiro [cyclobutane-1,3′-indolin]-6′-yl)-5,5-dimethyl-1-((2-((tetrahydro-2H-pyran-4-yl)amino)pyridin-4-yl)methyl)imidazolidine-2,4-dione], for which the IC50 is at most 500 nM.

Take `CC1(C)C(=O)N(c2ccc(C3(C(F)(F)F)CCC3)cc2)C(=O)N1Cc1ccnc2c1CC(=O)N2` [Compound 30, 5,5-dimethyl-1-((2-oxo-2,3-dihydro-1H-pyrrolo[2,3-b]pyridin-4-yl)methyl)-3-(4-(1-(trifluoromethyl)cyclobutyl)phenyl)imidazolidine-2,4-dione hydrochloride]: the half-maximal inhibitory concentration (IC50) is at most 500 nM.

For the molecule `C[C@@H](CC#N)Nc1cc(CN2C(=O)N(c3ccc4c(c3)N(S(C)(=O)=O)CC43CCC3)C(=O)C2(C)C)ccn1` [Compound 221, (S)-3-((4-((5,5-dimethyl-3-(1′-(methylsulfonyl)spiro[cyclobutane-1,3′-indolin]-6′-yl)-2,4-dioxoimidazolidin-1-yl)methyl)pyridin-2-yl)amino)butanenitrile], the IC50 is at most 500 nM.

As for `CC(C)Nc1cc(CN2C(=O)N(c3ccc(C(C)(C)C#N)nc3)C(=O)C2(C)C)ccn1` [Compound 143, 2-(5-(3-((2-(isopropylamino)pyridin-4-yl)methyl)-4,4-dimethyl-2,5-dioxoimidazolidin-1-yl)pyridin-2-yl)-2-methylpropanenitrile], the IC50 was 500 to 2000 nM.

With `CC1(C)C(=O)N(c2ccc3c(c2)N(S(C)(=O)=O)CC32CCC2)C(=O)N1Cc1ccnc(N[C@H]2CCOC2)c1` [Compound 204, (S)-5,5-dimethyl-3-(1′-(methylsulfonyl)spiro[cyclobutane-1,3′-indolin]-6′-yl)-1-((2-((tetrahydrofuran-3-yl)amino)pyridin-4-yl)methyl)imidazolidine-2,4-dione], the IC50 is at most 500 nM.

For the molecule `COC[C@@H](C)Nc1cc(CN2C(=O)N(c3ccc4c(c3)N(C)CC4(C)C)C(=O)C2(C)C)ccn1` [Compound 202, (R)-1-((2-((1-methoxypropan-2-yl)amino)pyridin-4-yl)methyl)-5,5-dimethyl-3-(1,3,3-trimethylindolin-6-yl)imidazolidine-2,4-dione], the IC50 is at most 500 nM.

Consider `CC1(C)C(=O)N(c2ccc3c(c2)N(S(C)(=O)=O)CC32CCC2)C(=O)N1Cc1ccnc(NC2CCOCC2)c1` [Compound 211, 5,5-dimethyl-3-(1′-(methylsulfonyl)spiro[cyclobutane-1,3′-indolin]-6′-yl)-1-((2-((tetrahydro-2H-pyran-4-yl)amino)pyridin-4-yl)methyl)imidazolidine-2,4-dione], for which the IC50 is at most 500 nM.

Consider `Cn1nc(C(C)(C)C)cc1N1C(=O)N(Cc2ccnc(N[C@H]3CCOC3)c2)C(C)(C)C1=O` [Compound 261, (S)-3-(3-(tert-butyl)-1-methyl-1H-pyrazol-5-yl)-5,5-dimethyl-1-((2-((tetrahydrofuran-3-yl)amino)pyridin-4-yl)methyl)imidazolidine-2,4-dione], for which the IC50 was above 10000 nM.

For the molecule `COC(C)CNc1cc(CN2C(=O)N(c3ccc(C4(C(F)(F)F)CC4)cc3)C(=O)C2(C)C)ccn1` (centres unmarked) [Compound 163, 1-((2-((2-methoxypropyl)amino)pyridin-4-yl)methyl)-5,5-dimethyl-3-(4-(1-(trifluoromethyl)cyclopropyl)phenyl) imidazolidine-2,4-dione], the IC50 is at most 500 nM.

With `CC(Nc1cc(CN2C(=O)N(c3ccc(C4(C(F)(F)F)CC4)cc3)C(=O)C2(C)C)ccn1)c1cnccn1` (centres unmarked) [Compound 168, 5,5-dimethyl-1-((2-((1-(pyrazin-2-yl)ethyl)amino)pyridin-4-yl)methyl)-3-(4-(1-(trifluoromethyl)cyclopropyl)phenyl) imidazolidine-2,4-dione], the IC50 was at most 500 nM.

As for `CC1(C)C(=O)N(c2ccc(C34CC(C3)C4)cc2)C(=O)N1Cc1ccnc2c1CC(=O)N2` [Compound 32, 3-(4-(bicyclo[1.1.1]pentan-1-yl)phenyl)-5,5-dimethyl-1-((2-oxo-2,3-dihydro-1H-pyrrolo[2,3-b]pyridin-4-yl)methyl)imidazolidine-2,4-dione], the IC50 is at most 500 nM.

As for `CC1(C)C(=O)N(c2ccc3c(c2)N(S(C)(=O)=O)CC32CC2)C(=O)N1Cc1ccnc(NC2CCOCC2)c1` [Compound 212, 5,5-dimethyl-3-(1′-(methylsulfonyl)spiro[cyclopropane-1,3′-indolin]-6′-yl)-1-((2-((tetrahydro-2H-pyran-4-yl)amino)pyridin-4-yl)methyl)imidazolidine-2,4-dione], the IC50 was at most 500 nM.

Take `C[C@H](CC#N)Nc1cc(CN2C(=O)N(c3ccc(C4(C(F)(F)F)CC4)cc3)C(=O)C2(C)C)ccn1` [Compound 147, (R)-3-((4-((5,5-dimethyl-2,4-dioxo-3-(4-(1-(trifluoromethyl)cyclopropyl)phenyl)imidazolidin-1-yl)methyl)pyridin-2-yl)amino)butanenitrile]: the IC50 was at most 500 nM.

For `CC1(Nc2cc(CN3C(=O)N(c4ccc(S(=O)(=O)C(F)(F)F)cc4)C(=O)C3(C)C)ccn2)CC1` [Compound 355, 5,5-dimethyl-1-((2-((1-methylcyclopropyl)amino)pyridin-4-yl)methyl)-3-(4-((trifluoromethyl)sulfonyl)phenyl)imidazolidine-2,4-dione], the 50% inhibitory concentration (IC50) is at most 500 nM.

For `CC1(C)C(=O)N(c2ccc3c(c2)N(S(C)(=O)=O)CC32CCC2)C(=O)N1Cc1ccnc(NCC23CCC(CC2)OC3)c1` [Compound 233, 1-((2-(((2-oxabicyclo[2.2.2]octan-4-yl)methyl)amino)pyridin-4-yl)methyl)-5,5-dimethyl-3-(1′-(methylsulfonyl)spiro[cyclobutane-1,3′-indolin]-6′-yl)imidazolidine-2,4-dione], the IC50 is at most 500 nM.

`CC1(C)C(=O)N(c2ccc(C#N)c(C(F)(F)F)c2)C(=O)N1Cc1ccnc2c1CC(=O)N2` [Compound 76, 4-(4,4-dimethyl-2,5-dioxo-3-((2-oxo-2,3-dihydro-1H-pyrrolo[2,3-b]pyridin-4-yl)methyl)imidazolidin-1-yl)-2-(trifluoromethyl)benzonitrile]: the IC50 fell in the range of 2000 to 10000 nM.

The values above are taken from patent US20250145585A1, “HETEROCYCLIC INHIBITORS OF IGF-1R FOR TREATMENT OF DISEASE” (HORIZON THERAPEUTICS IRELAND DAC, priority 2023, published 2025).
